Numbers after ± are expanded uncertainties.
Conditions: 101.33 kPa, Liquid; for speed of sound: Sing-around technique in a fixed-path interferometer; for mass density: Vibrating tube method

| Structure (SMILES) | speed of sound (298.15 K) [m/s] | mass density (298.15 K) [kg/m3] | speed of sound (303.15 K) [m/s] | mass density (303.15 K) [kg/m3] | speed of sound (308.15 K) [m/s] | mass density (308.15 K) [kg/m3] | speed of sound (313.15 K) [m/s] | mass density (313.15 K) [kg/m3] | speed of sound (318.15 K) [m/s] | mass density (318.15 K) [kg/m3] | speed of sound (323.15 K) [m/s] | mass density (323.15 K) [kg/m3] |
| --- | --- | --- | --- | --- | --- | --- | --- | --- | --- | --- | --- | --- |
| C1CCCCC1 [cyclohexane] | 1254 ± 1 | 773.86 ± 0.14 | 1229 ± 1 | 769.12 ± 0.14 | 1205 ± 1 | 764.35 ± 0.14 | 1181 ± 1 | 759.56 ± 0.14 | 1157 ± 1 | 754.74 ± 0.14 | 1134 ± 1 | 749.88 ± 0.15 |
| CCCCCCC [heptane] | 1131 ± 1 | 679.91 ± 0.18 | 1109 ± 1 | 675.63 ± 0.19 | 1088 ± 1 | 671.33 ± 0.19 | 1066 ± 1 | 667.01 ± 0.19 | 1045 ± 1 | 662.65 ± 0.19 | 1024 ± 1 | 658.26 ± 0.19 |
| CCCCCC [hexane] | 1077 ± 2 | 655.21 ± 0.26 | 1054 ± 2 | 650.64 ± 0.26 | 1032 ± 2 | 646.03 ± 0.26 | 1010 ± 2 | 641.37 ± 0.26 | 988 ± 2 | 636.67 ± 0.26 | 965 ± 2 | 631.92 ± 0.26 |

— the NIST ThermoML archive (doi:10.1016/j.jct.2012.09.015)
